Data on 29 molecules can be found in PubChem BioAssay AID651934 (Southern Research Specialized Biocontainment Screening …, 2012).

The source made the active and inactive calls. How the calls were made is not given here.

In the first experiment the test system is Chikungunya virus infected cells, CPE inhibition. As to the kind of experiment: Chikungunya virus CPE inhibitors, dose response, cell-based, secondary assay, set 3 (AID 651934).
Settings: not given
Broadly, the IC50 is the point on the concentration scale where inhibition reaches its midpoint. Consider `O=c1nc(Nc2ccc(OCc3ccccc3)cc2)sc2ncc(F)cc12`, for which the IC50 is 3650 nM. Consider `O=c1nc(Nc2ccc(OCc3ccccc3)cc2)sc2ncccc12`, for which the IC50 is 1060 nM.

Test system in the next experiment: not listed separately
The description is as above. To be noted: Chikungunya virus infected cells, CPE inhibition; at 0.625 µM (top of the series).
What is called inhibition is the relative decrease from the control value, in per cent. Regarding `COc1ccc(NC(=O)c2cc([N+](=O)[O-])ccc2N=C2CN(C)CCN2C)cc1`, the inhibition was 0.6% (inactive).

The same experiment, now with this note: Chikungunya virus infected cells, CPE inhibition; at 25 µM (top of the series).
As for `CCN1CCN(Cc2nc3ccc([N+](=O)[O-])cc3c(=O)n2-c2ccccc2)CC1`, the inhibition is 1.8% (inactive).

Turning to `O=c1nc(Nc2ccc(F)cc2)sc2ncccc12`, the inhibition is 0.9% (inactive). Same read-out and setting: to `O=c1nc(Nc2ccc(OCc3ccccc3)cc2)sc2ncc([N+](=O)[O-])cc12` belongs -1% (inactive).

As to `O=c1nc(Nc2ccccc2OCc2ccccc2)sc2ncccc12`, the inhibition is -1% (inactive). For `CCN1CCN(c2nc3ccc([N+](=O)[O-])cc3c(=O)n2-c2ccccc2)CC1`, the inhibition was -1.4% (inactive). `CCN1CCN(CC2Nc3ccc([N+](=O)[O-])cc3C(=O)N2c2ccccc2F)CC1` (centres undefined): the inhibition was -0.9% (inactive). Take `O=c1nc(N2CCN(Cc3ccccc3)CC2)sc2ncccc12`: the inhibition was 1.8% (inactive). For `Cc1cccc(C)c1Nc1nc(=O)c2cccnc2s1`, the inhibition is -0.7% (inactive). Same read-out and setting: the result for `CN1CCN(C)C(=Nc2ccc([N+](=O)[O-])cc2C(=O)Nc2ccccc2)C1` reads -1.6% (inactive); that for `CCN1CCN(Cc2nc3ccc(C#N)cc3c(=O)n2-c2ccccc2)CC1`, -0.5% (inactive). Same read-out and setting: the result for `CCN1CCN(Cc2nc3ccc(S(=O)(=O)O)cc3c(=O)n2-c2ccccc2)CC1` reads -0.2% (inactive); that for `O=c1nc(NC2CCNCC2)sc2ncccc12`, -0.4% (inactive).

The same experiment, now with this note: Chikungunya virus infected cells, CPE inhibition; at 50 µM (top of the series).
Turning to `CCN1CCN(Cc2nc3ccc([N+](=O)[O-])cc3c(=O)n2-c2ccccc2F)CC1`, the inhibition is -3.4% (inactive). As for `CCN(CC)c1nc(=O)c2cccnc2s1`, the inhibition was -5.8% (inactive). Take `O=C1CN(Cc2nc3ccc([N+](=O)[O-])cc3c(=O)n2-c2ccccc2F)CCN1`: the inhibition is 1.2% (inactive). Same read-out and setting: the result for `CN1CCN(C)C(=Nc2cc(Cl)c(C#N)cc2C(=O)Nc2ccccc2)C1` reads 2.9% (inactive); that for `O=c1c2cc([N+](=O)[O-])ccc2nc(CN2CCCNCC2)n1-c1ccccc1`, 4.1% (inactive). In the case of `CNCCN(C)Cc1nc2ccc(C#N)cc2c(=O)n1-c1ccccc1F`, the inhibition is 6.3% (inactive). Regarding `CCN1CCN(Cc2nc3ccc(-c4nn[nH]n4)cc3c(=O)n2-c2ccccc2)CC1`, the inhibition is 0.6% (inactive). Still for that read-out and setting: the result for `COc1ccc(Nc2nc(=O)c3cccnc3s2)cc1` reads -5.2% (inactive). On the same count and under the same terms, the result for `O=c1nc(Nc2ccc(CCc3ccccc3)cc2)sc2ncccc12` reads 44% (inactive).

For `CCN1CCN(Cc2nc3ccc([N+](=O)[O-])cc3c(=O)n2Cc2ccccc2)CC1`, the inhibition is 5.3% (inactive). Still for that read-out and setting: to `CN1CCN(C)C(=Nc2ccc(C#N)cc2C(=O)Nc2cccc(F)c2)C1` belongs 3.5% (inactive); to `CN1CCN(C)C(=Nc2ccc(F)cc2C(=O)Nc2ccccc2)C1`, 2.2% (inactive). Regarding `CNCCCN(C)Cc1nc2ccc([N+](=O)[O-])cc2c(=O)n1-c1ccccc1`, the inhibition is 0.8% (inactive). On the same count and under the same terms, the result for `CCN1CCN(C)CC1=Nc1ccc([N+](=O)[O-])cc1C(=O)Nc1ccccc1` reads 1.7% (inactive).
